Data from ChEMBL document CHEMBL1201862, “PubChem BioAssay data set” (2004).
Active and inactive are the calls of the source.

Assays:
[1] = test system: Streptococcus sp. 'group A'; test: growth inhibition of control SK(-) GAS strain, dose response, counter-screen for streptokinase expression inhibitor project, luminescence, kanamycin, BacTiterGlo, confirmation (AID 1900); assay type: functional, organism-based
Streptokinase A = target: T1, Streptokinase A (Streptococcus pyogenes serotype M1, UniProt P10520); test: S. pyogenes streptokinase expression inhibitors, potency, dose response, plasminogen activation absorbance, OD405 (AID 1914); assay type: functional, Streptococcus pyogenes M1 GAS;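 further: secreted streptokinase activity via plasminogen activation per viability signal from cell pellet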
T1 sequence (P10520 whole entry): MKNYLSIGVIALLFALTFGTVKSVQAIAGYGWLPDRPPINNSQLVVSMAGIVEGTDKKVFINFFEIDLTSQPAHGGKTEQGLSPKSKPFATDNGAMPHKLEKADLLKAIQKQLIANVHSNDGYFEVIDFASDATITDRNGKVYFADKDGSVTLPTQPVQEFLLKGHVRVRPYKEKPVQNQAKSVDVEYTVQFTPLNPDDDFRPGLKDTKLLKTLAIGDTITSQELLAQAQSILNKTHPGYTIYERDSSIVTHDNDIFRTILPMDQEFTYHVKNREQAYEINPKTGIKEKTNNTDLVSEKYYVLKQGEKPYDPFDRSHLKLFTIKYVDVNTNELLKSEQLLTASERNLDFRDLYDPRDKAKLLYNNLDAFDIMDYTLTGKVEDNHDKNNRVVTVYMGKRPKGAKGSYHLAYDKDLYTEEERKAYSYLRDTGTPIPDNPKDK

[2] = cytotoxicity toward NIH3T3 fibroblasts, dose response, counter-screen, cell-based, ATP luminescence, mouse fibroblasts (AID 2010); assay type: functional;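 further: cells exposed to compound for about 90 hours before reading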
Vero = test: host cell cytotoxicity of antiviral hits, dose response, cytotoxicity control for West Nile virus antiviral project, secondary assay (AID 1650); assay type: functional; conditions: Chlorocebus sabaeus
[3] = inhibitors of intracellular T. cruzi replication, confirmation, NIH3T3 host cells, beta-gal luminescence (AID 2044); assay type: functional, cell-based;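 further: intracellular parasites grown in NIH/3T3 mouse fibroblasts as host cells; luminescent beta-galactosidase reporter signal from transgenic T. cruzi replicating inside host cells; inhibitors lower the luminescence signal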
Streptococcus = test: Group A Streptococcus viability loss, dose response, counter-screen for streptokinase expression inhibitor project, luminescence, BacTiterGlo (AID 1915); assay type: functional, organism-based;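 further: potency for reduction of bacterial viability or growth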
Aspartyl aminopeptidase = Aspartyl aminopeptidase (Plasmodium falciparum 3D7, UniProt Q8I2J3); test: Counterscreen for inhibitors of M1 and M17 aminopeptidases: QFRET-based biochemical high throughput dose response assay for inhibitors of the Plasmodium falciparum M18 Aspartyl Aminopeptidase (PFM18AAP). [Related PubChem assays: 1619 (Screening assay (M17LAP inhibitors).), 1445 (Screening assay (M1AAP inhibitors).)]
Sequence of Aspartyl aminopeptidase (Q8I2J3 whole entry): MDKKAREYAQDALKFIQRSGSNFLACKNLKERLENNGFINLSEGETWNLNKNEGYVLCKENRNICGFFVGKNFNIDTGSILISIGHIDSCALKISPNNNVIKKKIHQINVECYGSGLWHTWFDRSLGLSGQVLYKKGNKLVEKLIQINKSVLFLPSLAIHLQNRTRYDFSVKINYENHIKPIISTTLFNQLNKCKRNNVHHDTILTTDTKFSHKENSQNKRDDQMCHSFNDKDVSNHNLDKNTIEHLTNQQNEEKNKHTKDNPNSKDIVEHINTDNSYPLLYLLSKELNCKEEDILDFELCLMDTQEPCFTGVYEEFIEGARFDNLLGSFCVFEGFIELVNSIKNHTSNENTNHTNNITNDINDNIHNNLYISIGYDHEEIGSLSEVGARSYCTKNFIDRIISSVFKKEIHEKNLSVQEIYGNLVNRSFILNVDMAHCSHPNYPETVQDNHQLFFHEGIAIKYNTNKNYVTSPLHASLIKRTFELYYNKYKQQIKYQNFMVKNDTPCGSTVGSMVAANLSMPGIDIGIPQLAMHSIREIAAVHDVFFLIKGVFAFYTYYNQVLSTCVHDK

Procathepsin L = Procathepsin L (Homo sapiens, UniProt P07711); test: cathepsin L inhibitors, dose response, counter-screen for M1/M17 aminopeptidase inhibitor project, biochemical, QFRET, 1536-well (AID 2214)
Sequence of Procathepsin L (P07711 whole entry): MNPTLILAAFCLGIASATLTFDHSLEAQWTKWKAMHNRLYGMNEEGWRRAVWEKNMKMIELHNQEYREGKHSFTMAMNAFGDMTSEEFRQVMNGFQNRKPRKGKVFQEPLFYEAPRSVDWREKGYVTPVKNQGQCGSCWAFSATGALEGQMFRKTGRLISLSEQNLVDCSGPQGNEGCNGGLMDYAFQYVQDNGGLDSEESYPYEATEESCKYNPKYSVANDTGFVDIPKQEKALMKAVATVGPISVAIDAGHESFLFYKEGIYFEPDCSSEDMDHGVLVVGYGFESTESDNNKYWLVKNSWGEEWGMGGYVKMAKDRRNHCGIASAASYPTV

Aminopeptidase N = target: T2, Aminopeptidase N (Plasmodium falciparum FcB1/Columbia, UniProt O96935); test: P. falciparum M1AAP inhibitors, biochemical, fluorogenic H-Leu-NHMec substrate, 1536-well (AID 1445); set-up: species or system Plasmodium falciparum 3D7, 3D7
T2 sequence (O96935 whole entry): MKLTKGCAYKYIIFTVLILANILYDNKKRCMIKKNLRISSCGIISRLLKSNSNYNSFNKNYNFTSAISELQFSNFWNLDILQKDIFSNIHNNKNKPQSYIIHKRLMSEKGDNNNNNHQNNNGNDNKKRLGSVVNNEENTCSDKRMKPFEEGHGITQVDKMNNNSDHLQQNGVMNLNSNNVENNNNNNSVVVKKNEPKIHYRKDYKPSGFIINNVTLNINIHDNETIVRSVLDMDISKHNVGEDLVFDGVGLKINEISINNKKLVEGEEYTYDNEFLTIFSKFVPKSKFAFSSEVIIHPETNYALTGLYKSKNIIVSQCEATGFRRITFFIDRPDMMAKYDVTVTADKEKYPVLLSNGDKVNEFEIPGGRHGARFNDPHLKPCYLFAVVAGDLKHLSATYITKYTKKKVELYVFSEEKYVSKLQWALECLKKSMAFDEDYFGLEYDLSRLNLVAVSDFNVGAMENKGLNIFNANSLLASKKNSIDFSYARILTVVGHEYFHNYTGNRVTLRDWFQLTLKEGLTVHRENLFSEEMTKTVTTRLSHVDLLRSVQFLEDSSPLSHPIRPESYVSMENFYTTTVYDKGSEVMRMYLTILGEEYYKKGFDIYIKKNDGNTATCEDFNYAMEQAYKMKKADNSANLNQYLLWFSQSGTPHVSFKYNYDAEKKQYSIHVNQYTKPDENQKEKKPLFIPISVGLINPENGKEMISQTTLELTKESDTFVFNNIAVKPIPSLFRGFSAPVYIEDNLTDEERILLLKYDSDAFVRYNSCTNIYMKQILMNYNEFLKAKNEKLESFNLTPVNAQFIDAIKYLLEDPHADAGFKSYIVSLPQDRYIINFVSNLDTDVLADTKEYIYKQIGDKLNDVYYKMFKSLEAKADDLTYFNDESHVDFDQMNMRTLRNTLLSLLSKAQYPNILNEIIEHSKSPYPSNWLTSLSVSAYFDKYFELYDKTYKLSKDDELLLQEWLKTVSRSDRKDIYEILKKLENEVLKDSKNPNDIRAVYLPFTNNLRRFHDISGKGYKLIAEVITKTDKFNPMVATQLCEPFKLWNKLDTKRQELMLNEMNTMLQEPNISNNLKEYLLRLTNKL

Beta Lactamase = Beta Lactamase (Pseudomonas aeruginosa, UniProt Q932Y6); test: beta-lactamase reporter inhibitor potency, dose response, artefact control for NOD2-RIPK2 interaction inhibitor project, BLA reporter cells, FRET fluorescence (AID 651552); assay type: functional, cell-based
Sequence of Beta Lactamase (Q932Y6 whole entry): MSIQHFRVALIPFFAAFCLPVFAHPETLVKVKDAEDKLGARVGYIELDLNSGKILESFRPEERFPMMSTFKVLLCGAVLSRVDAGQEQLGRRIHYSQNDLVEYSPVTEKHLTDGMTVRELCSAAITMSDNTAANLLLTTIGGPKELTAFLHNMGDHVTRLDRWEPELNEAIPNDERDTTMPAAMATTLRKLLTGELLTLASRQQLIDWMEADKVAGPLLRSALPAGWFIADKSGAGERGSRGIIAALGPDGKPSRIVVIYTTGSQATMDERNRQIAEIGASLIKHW

[4] = target: Luciferin 4-monooxygenase (Photinus pyralis, UniProt P08659); test: firefly luciferase enzyme inhibitors, dose response, biochemical, luminescence (AID 1891)
Sequence of Luciferin 4-monooxygenase (P08659 whole entry): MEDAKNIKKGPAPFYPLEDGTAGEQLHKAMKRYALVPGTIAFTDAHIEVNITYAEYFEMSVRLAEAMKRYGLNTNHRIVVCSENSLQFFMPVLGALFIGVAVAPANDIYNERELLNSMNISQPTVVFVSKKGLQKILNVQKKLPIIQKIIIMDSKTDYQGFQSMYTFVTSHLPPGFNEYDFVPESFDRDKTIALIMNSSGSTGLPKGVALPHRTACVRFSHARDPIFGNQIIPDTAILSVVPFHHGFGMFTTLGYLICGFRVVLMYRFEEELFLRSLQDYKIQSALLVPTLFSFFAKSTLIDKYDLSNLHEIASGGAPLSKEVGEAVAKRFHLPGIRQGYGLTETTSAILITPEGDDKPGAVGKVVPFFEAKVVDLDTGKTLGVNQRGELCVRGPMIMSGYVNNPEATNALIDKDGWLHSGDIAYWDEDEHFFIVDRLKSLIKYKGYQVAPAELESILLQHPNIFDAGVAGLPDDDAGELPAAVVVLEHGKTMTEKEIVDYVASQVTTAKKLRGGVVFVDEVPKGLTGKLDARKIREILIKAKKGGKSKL

Beta-galactosidase = Beta-galactosidase (Escherichia coli, UniProt Q8VNN2); test: beta-galactosidase enzyme inhibitors and activators, dose response, artefact control for CCR6 antagonist project, biochemical, E. coli enzyme, set 3 (AID 504712); assay type: functional
Sequence of Beta-galactosidase (Q8VNN2 whole entry, the tested form may be a part): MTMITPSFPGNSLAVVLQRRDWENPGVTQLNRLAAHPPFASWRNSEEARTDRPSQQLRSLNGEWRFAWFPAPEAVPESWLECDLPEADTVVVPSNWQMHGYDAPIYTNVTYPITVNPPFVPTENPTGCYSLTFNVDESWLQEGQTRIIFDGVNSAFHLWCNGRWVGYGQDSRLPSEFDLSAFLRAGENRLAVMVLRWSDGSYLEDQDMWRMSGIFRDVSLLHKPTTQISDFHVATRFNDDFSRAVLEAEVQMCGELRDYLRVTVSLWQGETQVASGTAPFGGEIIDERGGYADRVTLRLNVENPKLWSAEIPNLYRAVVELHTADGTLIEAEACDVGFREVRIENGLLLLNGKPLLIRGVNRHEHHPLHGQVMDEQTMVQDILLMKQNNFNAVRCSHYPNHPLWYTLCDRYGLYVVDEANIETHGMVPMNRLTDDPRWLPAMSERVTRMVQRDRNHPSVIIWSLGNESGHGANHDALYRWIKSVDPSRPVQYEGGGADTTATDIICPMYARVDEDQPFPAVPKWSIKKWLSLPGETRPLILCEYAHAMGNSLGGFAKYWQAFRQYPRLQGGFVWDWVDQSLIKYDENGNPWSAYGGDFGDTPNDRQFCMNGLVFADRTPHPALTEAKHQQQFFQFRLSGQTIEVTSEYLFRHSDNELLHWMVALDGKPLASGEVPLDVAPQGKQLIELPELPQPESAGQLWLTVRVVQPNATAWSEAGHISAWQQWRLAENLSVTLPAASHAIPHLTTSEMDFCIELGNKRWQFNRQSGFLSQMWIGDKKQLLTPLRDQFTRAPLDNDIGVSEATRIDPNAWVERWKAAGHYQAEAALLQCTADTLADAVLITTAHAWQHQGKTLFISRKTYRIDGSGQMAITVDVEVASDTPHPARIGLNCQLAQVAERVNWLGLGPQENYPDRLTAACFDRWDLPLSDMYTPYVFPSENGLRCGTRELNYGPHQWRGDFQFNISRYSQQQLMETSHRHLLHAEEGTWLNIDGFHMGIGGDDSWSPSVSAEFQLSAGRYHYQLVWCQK

[5] = Fluorescence-based cell-based high throughput dose response assay for inhibitors of the interaction of nucleotide-binding oligomerization domain containing 2 (NOD2) and the receptor-interacting serine-threonine kinase 2 (RIPK2).; assay type: functional; conditions: Homo sapiens
[6] = Luminescence Cell-Based Dose Confirmation HTS to Identify Inhibitors of Platelet Dense Granule Release. [Related pubchem assays: 1663 (Primary HTS), 1678 (Summary of Project)]; assay type: functional
[7] = Fluorescence Cell-Based Dose Response to Identify Inhibitors of Thrombin Receptor-Activating Peptide SFLLRN-Mediated P-Selectin Induction on Platelets. [Related pubchem assays: 1663 (Primary HTS), 1889 (retest at dose ), 1891 (counterscreen), 1678 (Project Summary)]; assay type: functional
[8] = target: T3, Heat shock factor protein 1 (Mus musculus, UniProt P38532); test: HSF1 potentiators in luciferase reporter cells, confirmation, cell-based, NIH3T3, luminescence, dose retest (AID 435004); assay type: functional;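 further: stress induced by proteasome inhibitor MG132 added 30 min after compound; luciferase reporter driven by HSF1 response element in NIH3T3 cells; actives raise luminescence as potentiators of the MG132 stress response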
T3 sequence (P38532 whole entry): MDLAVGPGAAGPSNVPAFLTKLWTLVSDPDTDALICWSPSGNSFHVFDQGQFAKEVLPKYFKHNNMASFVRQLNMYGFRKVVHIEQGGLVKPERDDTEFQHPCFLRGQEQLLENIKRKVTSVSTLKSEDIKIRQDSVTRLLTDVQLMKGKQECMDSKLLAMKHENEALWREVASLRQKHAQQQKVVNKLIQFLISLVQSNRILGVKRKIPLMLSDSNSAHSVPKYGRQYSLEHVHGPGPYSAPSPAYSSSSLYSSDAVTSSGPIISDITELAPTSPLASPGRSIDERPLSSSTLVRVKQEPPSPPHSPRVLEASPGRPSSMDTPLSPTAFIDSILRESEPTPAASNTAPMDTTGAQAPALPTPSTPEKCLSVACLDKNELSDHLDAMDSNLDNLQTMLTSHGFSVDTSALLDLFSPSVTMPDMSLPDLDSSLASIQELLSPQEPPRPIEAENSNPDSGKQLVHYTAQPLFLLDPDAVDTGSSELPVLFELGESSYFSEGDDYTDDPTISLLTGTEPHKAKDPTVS

[9] = target: T4, Adenosylmethionine-8-amino-7-oxononanoate aminotransferase (Mycobacterium tuberculosis, UniProt P9WQ81); test: Mycobacterium tuberculosis BioA enzyme inhibitor Measured in Biochemical System Using Plate Reader - 2163-02_Inhibitor_Dose_CherryPick_Activity.; assay type: functional, Mycobacterium tuberculosis UT205
T4 sequence (P9WQ81 whole entry): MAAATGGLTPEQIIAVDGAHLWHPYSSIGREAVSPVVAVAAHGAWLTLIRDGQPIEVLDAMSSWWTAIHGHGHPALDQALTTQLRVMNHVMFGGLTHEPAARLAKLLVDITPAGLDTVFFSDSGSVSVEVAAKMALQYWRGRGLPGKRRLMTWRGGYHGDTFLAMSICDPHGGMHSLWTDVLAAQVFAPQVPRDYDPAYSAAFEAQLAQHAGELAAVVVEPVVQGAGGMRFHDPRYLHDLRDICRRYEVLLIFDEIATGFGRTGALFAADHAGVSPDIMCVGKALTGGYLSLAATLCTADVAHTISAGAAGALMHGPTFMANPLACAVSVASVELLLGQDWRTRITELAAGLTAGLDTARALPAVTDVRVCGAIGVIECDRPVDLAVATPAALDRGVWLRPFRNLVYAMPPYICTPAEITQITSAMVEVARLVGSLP

[10] = target: Potassium voltage-gated channel subfamily KQT member 2 (Rattus norvegicus, UniProt O88943, W236L); test: KCNQ2 channel potentiators, dose response, mechanism study for KCNQ2 potentiator project, cell-based, automated electrophysiology (AID 2603); assay type: functional
Sequence of Potassium voltage-gated channel subfamily KQT member 2 (O88943 whole entry W236L): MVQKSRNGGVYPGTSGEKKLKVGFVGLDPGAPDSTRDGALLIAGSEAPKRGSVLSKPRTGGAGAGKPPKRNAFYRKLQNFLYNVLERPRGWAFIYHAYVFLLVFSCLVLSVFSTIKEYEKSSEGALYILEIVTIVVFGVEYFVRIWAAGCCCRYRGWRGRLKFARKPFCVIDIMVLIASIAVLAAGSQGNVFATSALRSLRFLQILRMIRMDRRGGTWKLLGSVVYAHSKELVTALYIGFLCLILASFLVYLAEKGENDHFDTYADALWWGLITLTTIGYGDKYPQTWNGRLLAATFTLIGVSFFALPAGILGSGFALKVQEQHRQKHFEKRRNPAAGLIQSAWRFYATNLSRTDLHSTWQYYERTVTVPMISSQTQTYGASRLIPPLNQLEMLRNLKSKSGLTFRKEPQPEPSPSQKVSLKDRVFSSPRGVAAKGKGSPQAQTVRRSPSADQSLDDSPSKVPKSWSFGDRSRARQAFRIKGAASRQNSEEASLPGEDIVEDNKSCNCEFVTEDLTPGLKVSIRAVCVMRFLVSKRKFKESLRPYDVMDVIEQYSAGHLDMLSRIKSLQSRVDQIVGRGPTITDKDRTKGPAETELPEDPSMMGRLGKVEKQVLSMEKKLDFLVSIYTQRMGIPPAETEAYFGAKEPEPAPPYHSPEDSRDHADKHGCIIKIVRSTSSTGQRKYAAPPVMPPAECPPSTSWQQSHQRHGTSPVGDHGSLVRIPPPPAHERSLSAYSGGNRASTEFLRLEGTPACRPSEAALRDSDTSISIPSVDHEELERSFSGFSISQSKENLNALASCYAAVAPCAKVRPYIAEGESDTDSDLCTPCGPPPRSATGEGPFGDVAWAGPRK

With `O=C(Nc1ccc(OC(F)(F)F)cc1)N1CCN(c2ccnc3cc(Cl)ccc23)CC1` the EC50 [1] was 9.61 µM (active), the EC50 (Streptokinase A) was 12.7 µM (active) and the EC50 [2] was 14.4 µM (active). The CC50 (Vero) was 2.95 µM (active), the EC50 [3] was 2.06 µM (active) and the EC50 (Streptococcus) was > 150 µM (not active).
For `O=C(NCc1ccco1)C1CCCN(S(=O)(=O)c2cccc3nonc23)C1` (stereo not drawn), the IC50 (Aspartyl aminopeptidase) was > 73.5 µM (not active), the IC50 (Procathepsin L) was > 59.6 µM (not active) and the IC50 (Aminopeptidase N) was 18.6 µM (active).
For `Cc1ccc(NN2C(=O)C=C(c3ccccc3)C2=O)cc1`, the IC50 (Beta Lactamase) was 28.7 µM (inactive), the EC50 [4] was > 112 µM (not active) and the IC50 (Beta-galactosidase) was > 66.6 µM (inactive). For the same compound, the IC50 [5] was 1.72 µM (active), the EC50 [6] was 5.06 µM (active) and the EC50 [7] was < 30 µM (active). The EC50 [8] was 10.5 µM (active).
For `O=C(Nc1cccnc1)c1ccc(Cl)c(Cl)c1`, the AC50 [9] was 3.94 µM (active) and the EC50 [10] was 26.2 µM (active).
